Source: US20250353864A1, “INDAZOLE CONTAINING MACROCYCLES AND THEIR USE” (BLOSSOMHILL THERAPEUTICS, INC., priority 2022, published 2025)

Legend:
Assay type in all cases: biochemical
[1] = target: EGFR Δ746-750/C797S mutant (Homo sapiens (Human), UniProt P00533, C797S/DEL746-750); test: HotSpot radiometric kinase assay, EGFR Δ746-750/C797S mutant; conditions: 10 μM ATP
Experimental: (§1) Biochemical Assays for Inhibition of Wild-Type and Mutant EGFRs
(§2) Briefly, specific kinase/substrate pairs along with required cofactors were prepared in reaction buffer; 20 mM Hepes pH 7.5, 10 mM […], 1 mM EGTA, 0.02% Brij35, 0.02 mg/ml BSA, 0.1 mM Na3VO4, 2 mM DTT, 1% DMSO. Compounds were delivered into the reaction, followed […] later by addition of a mixture of ATP (Sigma, St. Louis MO) and ^33P ATP (Perkin Elmer, Waltham MA) to a final concentration of 10 μM. Reactions were carried out at room temperature for 120 min, followed by spotting of the reactions onto P81 ion exchange filter paper (Whatman Inc., Piscataway, NJ). Unbound phosphate was removed by extensive washing of filters in 0.75% phosphoric acid. […] IC50 values and curve fits were obtained using Prism (GraphPad Software).

EGFR WT = EGFR WT (Homo sapiens (Human), UniProt P00533); test: HotSpot radiometric kinase assay (Reaction Biology), EGFR WT; conditions: 10 μM ATP
Experimental: as §1, §2

EGFR L858R mutant = EGFR L858R mutant (Homo sapiens (Human), UniProt P00533, L858R); test: HotSpot radiometric kinase assay, EGFR L858R mutant; conditions: 10 μM ATP
Chain of EGFR L858R mutant (P00533 25-1210 L858R): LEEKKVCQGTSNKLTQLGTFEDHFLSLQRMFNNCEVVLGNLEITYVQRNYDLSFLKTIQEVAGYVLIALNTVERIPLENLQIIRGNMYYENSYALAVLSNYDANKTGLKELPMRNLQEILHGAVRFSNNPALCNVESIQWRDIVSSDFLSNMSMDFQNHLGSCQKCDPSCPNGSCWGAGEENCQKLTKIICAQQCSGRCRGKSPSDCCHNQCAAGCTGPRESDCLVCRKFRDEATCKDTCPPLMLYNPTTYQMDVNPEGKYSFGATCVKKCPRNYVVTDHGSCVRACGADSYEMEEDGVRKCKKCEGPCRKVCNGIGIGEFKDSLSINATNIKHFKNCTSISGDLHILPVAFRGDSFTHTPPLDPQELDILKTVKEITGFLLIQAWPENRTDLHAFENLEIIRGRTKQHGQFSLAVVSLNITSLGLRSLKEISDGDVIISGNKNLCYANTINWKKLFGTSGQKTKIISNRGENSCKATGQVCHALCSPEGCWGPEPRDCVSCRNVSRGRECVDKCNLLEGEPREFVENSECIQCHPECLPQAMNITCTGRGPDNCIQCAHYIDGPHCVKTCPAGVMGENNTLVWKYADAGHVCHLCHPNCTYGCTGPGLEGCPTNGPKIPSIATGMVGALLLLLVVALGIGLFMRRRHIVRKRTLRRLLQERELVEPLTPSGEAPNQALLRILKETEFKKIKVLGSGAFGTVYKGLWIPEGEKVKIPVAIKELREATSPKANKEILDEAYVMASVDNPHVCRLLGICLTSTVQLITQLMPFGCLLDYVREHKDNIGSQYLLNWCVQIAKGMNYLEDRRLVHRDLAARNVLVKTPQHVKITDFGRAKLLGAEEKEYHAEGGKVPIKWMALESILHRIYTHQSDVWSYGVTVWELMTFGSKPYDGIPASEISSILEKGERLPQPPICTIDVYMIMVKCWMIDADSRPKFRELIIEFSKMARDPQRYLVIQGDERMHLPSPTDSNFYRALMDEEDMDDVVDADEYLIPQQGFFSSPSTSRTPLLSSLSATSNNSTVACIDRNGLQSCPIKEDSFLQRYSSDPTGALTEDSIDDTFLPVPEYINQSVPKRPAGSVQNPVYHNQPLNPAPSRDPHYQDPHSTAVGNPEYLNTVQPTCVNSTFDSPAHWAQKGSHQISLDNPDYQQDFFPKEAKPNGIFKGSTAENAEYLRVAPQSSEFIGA
Experimental: as §1, §2

[2] = target: EGFR L858R/T790M/C797S mutant (Homo sapiens (Human), UniProt P00533, C797S/L858R/T790M); test: HotSpot radiometric kinase assay, EGFR L858R/T790M/C797S mutant; conditions: 10 μM ATP
Chain of EGFR L858R/T790M/C797S mutant (P00533 25-1210 T790M/C797S/L858R): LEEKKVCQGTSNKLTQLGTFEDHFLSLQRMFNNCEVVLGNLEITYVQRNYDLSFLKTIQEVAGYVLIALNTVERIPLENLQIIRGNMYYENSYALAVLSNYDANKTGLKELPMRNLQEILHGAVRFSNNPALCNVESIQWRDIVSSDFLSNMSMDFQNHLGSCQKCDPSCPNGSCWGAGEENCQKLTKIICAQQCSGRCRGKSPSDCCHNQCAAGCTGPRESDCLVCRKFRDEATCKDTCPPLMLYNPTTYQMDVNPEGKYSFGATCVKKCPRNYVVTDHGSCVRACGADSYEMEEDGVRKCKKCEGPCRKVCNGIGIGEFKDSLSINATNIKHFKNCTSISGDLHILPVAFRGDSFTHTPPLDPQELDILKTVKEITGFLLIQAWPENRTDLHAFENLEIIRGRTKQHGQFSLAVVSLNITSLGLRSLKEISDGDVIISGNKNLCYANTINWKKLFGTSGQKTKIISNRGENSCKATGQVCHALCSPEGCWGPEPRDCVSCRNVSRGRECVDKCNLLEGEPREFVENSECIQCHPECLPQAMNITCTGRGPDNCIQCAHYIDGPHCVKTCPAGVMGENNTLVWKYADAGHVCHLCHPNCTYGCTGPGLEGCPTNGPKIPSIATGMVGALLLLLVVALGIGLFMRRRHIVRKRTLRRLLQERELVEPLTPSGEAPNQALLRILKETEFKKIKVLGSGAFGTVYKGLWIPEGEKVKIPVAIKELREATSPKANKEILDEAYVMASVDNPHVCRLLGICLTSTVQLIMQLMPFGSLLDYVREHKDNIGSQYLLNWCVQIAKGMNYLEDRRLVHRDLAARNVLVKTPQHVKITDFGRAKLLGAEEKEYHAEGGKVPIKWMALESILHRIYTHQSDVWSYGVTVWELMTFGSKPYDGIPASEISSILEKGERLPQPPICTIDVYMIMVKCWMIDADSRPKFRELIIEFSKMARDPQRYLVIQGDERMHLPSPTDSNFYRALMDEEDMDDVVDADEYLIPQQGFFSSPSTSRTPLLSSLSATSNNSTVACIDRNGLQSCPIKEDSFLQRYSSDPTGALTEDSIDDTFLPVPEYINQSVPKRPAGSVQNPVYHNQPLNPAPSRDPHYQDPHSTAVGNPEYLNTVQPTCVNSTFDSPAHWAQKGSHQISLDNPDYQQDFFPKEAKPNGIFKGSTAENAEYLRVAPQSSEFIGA
Experimental: as §1, §2

EGFR (D770_N771insNPG) = EGFR (D770_N771insNPG) (Homo sapiens (Human), UniProt P00533, INS770NPG); test: HotSpot radiometric kinase assay, EGFR (D770_N771insNPG); conditions: 10 μM ATP, read-out: EGFR (Δ770_N771insNPG) IC50
Chain of EGFR (D770_N771insNPG) (P00533 other isoform, or with tags, fused parts or gaps del 1-668/ins NPG behind 770 limits assumed): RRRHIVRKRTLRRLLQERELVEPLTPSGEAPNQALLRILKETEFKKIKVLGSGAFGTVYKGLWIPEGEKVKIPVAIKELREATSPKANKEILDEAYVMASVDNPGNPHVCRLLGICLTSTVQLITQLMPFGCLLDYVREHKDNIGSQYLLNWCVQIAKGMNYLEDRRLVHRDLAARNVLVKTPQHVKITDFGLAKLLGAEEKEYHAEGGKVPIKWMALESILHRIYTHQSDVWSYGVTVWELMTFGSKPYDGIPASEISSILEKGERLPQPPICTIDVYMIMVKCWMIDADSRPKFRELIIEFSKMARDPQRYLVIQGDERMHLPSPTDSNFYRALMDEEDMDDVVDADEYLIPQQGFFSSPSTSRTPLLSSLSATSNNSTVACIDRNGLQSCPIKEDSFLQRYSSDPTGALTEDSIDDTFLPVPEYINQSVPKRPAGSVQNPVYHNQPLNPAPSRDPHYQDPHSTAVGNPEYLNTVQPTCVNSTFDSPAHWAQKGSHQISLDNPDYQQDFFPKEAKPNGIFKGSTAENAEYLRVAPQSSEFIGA
Experimental: as §1, §2

EGFR Δ746-750 mutant = EGFR Δ746-750 mutant (Homo sapiens (Human), UniProt P00533, DEL746-750); test: HotSpot radiometric kinase assay, EGFR Δ746-750 mutant; conditions: 10 μM ATP
Chain of EGFR Δ746-750 mutant (P00533 other isoform, or with tags, fused parts or gaps del 1-668/del 746-750 limits assumed): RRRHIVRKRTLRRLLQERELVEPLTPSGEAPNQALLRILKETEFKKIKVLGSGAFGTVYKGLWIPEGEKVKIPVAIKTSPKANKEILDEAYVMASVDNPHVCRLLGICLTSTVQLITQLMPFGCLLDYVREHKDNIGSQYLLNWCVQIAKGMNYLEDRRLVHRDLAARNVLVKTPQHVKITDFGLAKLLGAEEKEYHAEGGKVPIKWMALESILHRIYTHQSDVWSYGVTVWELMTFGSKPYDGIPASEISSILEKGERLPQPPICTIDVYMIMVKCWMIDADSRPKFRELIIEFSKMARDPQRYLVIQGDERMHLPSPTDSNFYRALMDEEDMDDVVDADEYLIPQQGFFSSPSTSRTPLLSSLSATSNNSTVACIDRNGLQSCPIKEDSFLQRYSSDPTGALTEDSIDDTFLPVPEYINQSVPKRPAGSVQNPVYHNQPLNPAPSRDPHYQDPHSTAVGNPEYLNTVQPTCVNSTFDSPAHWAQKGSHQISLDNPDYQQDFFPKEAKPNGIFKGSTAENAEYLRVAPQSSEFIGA
Experimental: as §1, §2

EGFR L858R/T790M mutant = EGFR L858R/T790M mutant (Homo sapiens (Human), UniProt P00533, L858R/T790M); test: HotSpot radiometric kinase assay, EGFR L858R/T790M mutant; conditions: 10 μM ATP
Chain of EGFR L858R/T790M mutant (P00533 25-1210 T790M/L858R): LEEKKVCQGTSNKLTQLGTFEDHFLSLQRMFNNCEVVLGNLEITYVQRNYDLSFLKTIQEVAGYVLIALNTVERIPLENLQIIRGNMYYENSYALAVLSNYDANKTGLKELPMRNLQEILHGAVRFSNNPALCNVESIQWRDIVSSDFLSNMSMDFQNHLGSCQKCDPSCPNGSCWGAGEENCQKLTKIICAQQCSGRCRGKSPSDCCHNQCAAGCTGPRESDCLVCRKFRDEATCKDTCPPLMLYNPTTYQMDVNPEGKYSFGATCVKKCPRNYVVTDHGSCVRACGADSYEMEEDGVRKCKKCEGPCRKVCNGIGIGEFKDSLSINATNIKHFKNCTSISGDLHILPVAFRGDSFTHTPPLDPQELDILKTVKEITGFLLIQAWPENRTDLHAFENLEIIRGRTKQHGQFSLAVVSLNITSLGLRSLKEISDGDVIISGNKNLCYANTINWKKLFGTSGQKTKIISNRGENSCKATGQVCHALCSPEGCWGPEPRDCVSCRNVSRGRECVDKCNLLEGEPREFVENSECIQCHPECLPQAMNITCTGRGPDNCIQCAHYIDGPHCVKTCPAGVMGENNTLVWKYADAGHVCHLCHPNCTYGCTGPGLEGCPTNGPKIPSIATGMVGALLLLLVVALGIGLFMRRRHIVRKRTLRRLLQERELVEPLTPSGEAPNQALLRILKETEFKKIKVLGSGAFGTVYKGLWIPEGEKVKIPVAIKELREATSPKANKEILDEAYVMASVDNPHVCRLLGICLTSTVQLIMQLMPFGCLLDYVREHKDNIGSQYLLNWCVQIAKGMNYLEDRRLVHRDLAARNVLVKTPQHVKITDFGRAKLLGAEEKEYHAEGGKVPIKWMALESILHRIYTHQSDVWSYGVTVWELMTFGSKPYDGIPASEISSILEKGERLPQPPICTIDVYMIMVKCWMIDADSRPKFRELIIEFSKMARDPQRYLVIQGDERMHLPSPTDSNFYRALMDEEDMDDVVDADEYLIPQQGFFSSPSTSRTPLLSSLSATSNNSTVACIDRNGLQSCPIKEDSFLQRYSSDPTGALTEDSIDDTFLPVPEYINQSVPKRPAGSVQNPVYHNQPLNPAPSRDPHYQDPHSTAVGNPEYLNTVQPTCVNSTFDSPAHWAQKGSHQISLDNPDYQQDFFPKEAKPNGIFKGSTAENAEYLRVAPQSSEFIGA
Experimental: as §1, §2

Structure (SMILES): COC(C)(C)c1ccc2c(c1)O[C@@H]1CCN(CCOc3c(cnn3C)-c3ccc4[nH]nc(c4c3)/C=C/2)C1=O [Example 115, (10R,16E)-13-(2-methoxypropan-2-yl)-3-methyl-3,5,6,9,10,19-hexahydro-8H-20,22-etheno-7,10-methanodipyrazolo[3,4-i:4′,3′-m][1,8,5]benzodioxazacyclooctadecin-25-one]
- IC50 [1]: 0.0601 µM
- IC50 (EGFR WT): 0.147 µM
- IC50 (EGFR L858R mutant): 0.0373 µM
- IC50 [2]: 0.014 µM
- IC50 (EGFR (D770_N771insNPG)): 0.0323 µM
- IC50 (EGFR Δ746-750 mutant): 0.0129 µM
- IC50 (EGFR L858R/T790M mutant): 0.0016 µM

Structure (SMILES): Cc1c2c(nn1CCC(C)O)CN(C)C[C@H](C)Oc1c(cnn1C)-c1ccc3[nH]nc(c3c1)/C=C/2 (stereo partly drawn) [Example 95, 4-[(10S,17E)-8,10,12,16-tetramethyl-2,8,10,11,12,13-hexahydro-15H-3,5-ethenotripyrazolo[3,4-f:3′,4′-j:4″,3″-n][1,4]oxazacyclopentadecin-15-yl]butan-2-ol]
- IC50 [1]: 0.023 µM
- IC50 (EGFR WT): 0.167 µM
- IC50 (EGFR L858R mutant): 0.0301 µM
- IC50 [2]: 0.00493 µM
- IC50 (EGFR (D770_N771insNPG)): 0.524 µM
- IC50 (EGFR Δ746-750 mutant): 0.121 µM
- IC50 (EGFR L858R/T790M mutant): 0.00195 µM

Structure (SMILES): CCc1nn(C)c2c1/C=C/c1n[nH]c3ccc(cc13)-c1cnn(C)c1CN(C)CCO2 [Example 110, (17E)-16-ethyl-8,10,14-trimethyl-2,9,10,11,12,14-hexahydro-8H-3,5-ethenotripyrazolo[3,4-f:4′,3′-j:4″,3″- n][1,4]oxazacyclopentadecine]
- IC50 [1]: 0.0285 µM
- IC50 (EGFR WT): 0.15 µM
- IC50 (EGFR L858R mutant): 0.0304 µM
- IC50 [2]: 0.00854 µM
- IC50 (EGFR (D770_N771insNPG)): 0.112 µM
- IC50 (EGFR Δ746-750 mutant): 0.0144 µM
- IC50 (EGFR L858R/T790M mutant): 0.00499 µM

Structure (SMILES): CCOC(=O)Cn1nc(OCC)c2c1CN(CC)C[C@H](C)Oc1c(cnn1C)-c1ccc3[nH]nc(c3c1)/C=C/2 [Example 218, ethyl [(10S,17E)-16-ethoxy-12-ethyl-8,10-dimethyl-2,8,10,11,12,13-hexahydro-14H-3,5-ethenotripyrazolo[3,4-f:3′,4′-j:4″,3″-n][1,4]oxazacyclopentadecin-14-yl]acetate]
- IC50 [1]: 0.0166 µM
- IC50 (EGFR WT): 0.119 µM
- IC50 (EGFR L858R mutant): 0.0288 µM
- IC50 [2]: 0.00204 µM
- IC50 (EGFR (D770_N771insNPG)): 0.161 µM
- IC50 (EGFR Δ746-750 mutant): 0.00848 µM
- IC50 (EGFR L858R/T790M mutant): 0.00199 µM

Structure (SMILES): Cc1c2c(nn1[C@H]1CCNC[C@@H]1O)OCCCOc1c(cnn1C)-c1ccc3[nH]nc(c3c1)/C=C/2 (racemic) [Example 81, (rac)-4-[(17E)-8,16-dimethyl-2,8,11,12-tetrahydro-10H,15H-3,5-etheno[1,5]dioxacyclopentadecino[10,11-c:15,14-c′:6,7-c″ ]tripyrazol-15-yl]piperidin-3-ol]
- IC50 [1]: 0.0334 µM
- IC50 (EGFR WT): 0.0438 µM
- IC50 (EGFR L858R mutant): 0.0168 µM
- IC50 [2]: 0.00742 µM
- IC50 (EGFR (D770_N771insNPG)): 0.0403 µM
- IC50 (EGFR Δ746-750 mutant): 0.0296 µM
- IC50 (EGFR L858R/T790M mutant): 0.0017 µM

Structure (SMILES): CN1CCN(c2ccc3c(c2)OC2CCN(CCOc4c(cnn4C)-c4ccc5[nH]nc(c5c4)/C=C/3)C2=O)CC1 (stereo in doubt) [Example 131]
- IC50 [1]: 0.00409 µM
- IC50 (EGFR WT): 0.0177 µM
- IC50 (EGFR L858R mutant): 0.00402 µM
- IC50 [2]: 0.0019 µM
- IC50 (EGFR (D770_N771insNPG)): 0.00679 µM
- IC50 (EGFR Δ746-750 mutant): 0.00165 µM
- IC50 (EGFR L858R/T790M mutant): 0.00057 µM

Structure (SMILES): Cc1nn([C@H]2CCOC[C@@H]2O)c2c1/C=C/c1n[nH]c3ccc(cc13)-c1cnn(C)c1OCCCO2 (racemic) [Example 85, (rac)-1,5-anhydr-3o-2,3-dideoxy-3-[(17E)-8,16-dimethyl-2,8,11,12-tetrahydro-10H,14H-3,5-etheno[1,5]dioxacyclopentadecino[10,11-c:15,14-c′:6,7-c″ ]tripyrazol-14-yl]-L-threo-pentitol]
- IC50 [1]: > 1 µM
- IC50 (EGFR WT): > 1 µM
- IC50 (EGFR L858R mutant): > 1 µM
- IC50 [2]: > 1 µM
- IC50 (EGFR (D770_N771insNPG)): > 1 µM
- IC50 (EGFR Δ746-750 mutant): > 1 µM
- IC50 (EGFR L858R/T790M mutant): > 1 µM

Structure (SMILES): Cc1nn(C)c2c1/C=C/c1n[nH]c3ccc(cc13)-c1cnn(C)c1CN(C)C[C@@H](C)O2 (single isomer, unassigned) [Example 96]
- IC50 [1]: 0.0941 µM
- IC50 (EGFR WT): 0.242 µM
- IC50 (EGFR L858R mutant): 0.0749 µM
- IC50 [2]: 0.00945 µM
- IC50 (EGFR (D770_N771insNPG)): 0.196 µM
- IC50 (EGFR Δ746-750 mutant): 0.285 µM
- IC50 (EGFR L858R/T790M mutant): 0.00529 µM

Structure (SMILES): C[C@H]1CN(C)Cc2nn3c(c2/C=C/c2n[nH]c4ccc(cc24)-c2cnn(C)c2O1)CN(CCS(C)(=O)=O)CC3 [Example 166, (10S,20E)-18-[2-(methanesulfonyl)ethyl]-8,10,12-trimethyl-2,8,10,11,12,13,16,17,18,19-decahydro-3,5-ethenopyrazino[1′,2′:1,5]pyrazolo [3,4-f]dipyrazolo[3,4-j:4′,3′-n][1,4]oxazacyclopentadecine]
- IC50 [1]: 0.0081 µM
- IC50 (EGFR WT): 0.0998 µM
- IC50 (EGFR L858R mutant): 0.0128 µM
- IC50 [2]: 0.00055 µM
- IC50 (EGFR (D770_N771insNPG)): 0.0456 µM
- IC50 (EGFR Δ746-750 mutant): 0.015 µM
- IC50 (EGFR L858R/T790M mutant): 0.00072 µM

Structure (SMILES): CC(C)Oc1nn(CCO)c2c1/C=C/c1n[nH]c3ccc(cc13)-c1cnn(C)c1O[C@H](C)[C@H]1CCCN1C2 [Example 253, 2-[(8aR,9R,19E)-9,11-dimethyl-1-[(propan-2-yl)oxy]-7,8,8a,9,11,17-hexahydro-6H-14,16-ethenotripyrazolo[3,4-f:3′,4′-j:4″,3″-n]pyrrolo[2,1-c][1,4]oxazacyclopentadecin-3(4H)-yl]ethan-1-ol]
- IC50 [1]: 0.00198 µM
- IC50 (EGFR WT): 0.00163 µM
- IC50 (EGFR L858R mutant): 0.00166 µM
- IC50 [2]: 0.00527 µM
- IC50 (EGFR (D770_N771insNPG)): 0.00321 µM
- IC50 (EGFR Δ746-750 mutant): 0.00075 µM
- IC50 (EGFR L858R/T790M mutant): 0.00255 µM

Structure (SMILES): Cc1nn([C@H]2CN(C)C[C@@H]2O)c2c1/C=C/c1n[nH]c3ccc(cc13)-c1cnn(C)c1CN(C)CCO2 (racemic) [Example 98, (rac)-(3S,4S)-1-methyl-4-[(17E)-8,10,16-trimethyl-2,8,9,10,11,12-hexahydro-14H-3,5-ethenotripyrazolo[3,4-f:4′,3′-j:4″,3″-n][1,4]oxazacyclopentadecin-14-yl]pyrrolidin-3-ol]
- IC50 [1]: 0.027 µM
- IC50 (EGFR WT): 0.119 µM
- IC50 (EGFR L858R mutant): 0.0411 µM
- IC50 [2]: 0.0121 µM
- IC50 (EGFR (D770_N771insNPG)): 0.148 µM
- IC50 (EGFR Δ746-750 mutant): 0.0849 µM
- IC50 (EGFR L858R/T790M mutant): 0.00356 µM

Structure (SMILES): Cc1c2c(nn1C1CCN(C)C1)OCCN(C)Cc1c(cnn1C)-c1ccc3[nH]nc(c3c1)/C=C/2 (centres unmarked) [Example 117, (17E)-8,10,16-trimethyl-14-(1-methylpyrrolidin-3-yl)-2,9,10,11,12,14-hexahydro-8H-3,5-ethenotripyrazolo[3,4-f:4′,3′-j:4″,3″-n][1,4]oxazacyclopentadecine]
- IC50 [1]: 0.00836 µM
- IC50 (EGFR WT): 0.0701 µM
- IC50 (EGFR L858R mutant): 0.02 µM
- IC50 [2]: 0.00618 µM
- IC50 (EGFR (D770_N771insNPG)): 0.0535 µM
- IC50 (EGFR Δ746-750 mutant): 0.00691 µM
- IC50 (EGFR L858R/T790M mutant): 0.0022 µM

Structure (SMILES): Cc1nn([C@H]2C[C@@H](NCCN(C)C)C2)c2c1/C=C/c1n[nH]c3ccc(cc13)-c1cnn(C)c1OCCCO2 [Example 108, N^2-{(1s,3s)-3-[(17E)-8,16-dimethyl-2,8,11,12-tetrahydro-10H,14H-3,5-etheno[1,5]dioxacyclopentadecino[10,11-c:15,14-c′:6,7-c″]tripyrazol-14-yl]cyclobutyl}-N^1,N^1-dimethylethane-1,2-diamine]
- IC50 [1]: 0.0492 µM
- IC50 (EGFR WT): 0.101 µM
- IC50 (EGFR L858R mutant): 0.0262 µM
- IC50 [2]: 0.0119 µM
- IC50 (EGFR (D770_N771insNPG)): 0.103 µM
- IC50 (EGFR Δ746-750 mutant): 0.0309 µM
- IC50 (EGFR L858R/T790M mutant): 0.00386 µM

Structure (SMILES): Cn1ncc2c1OCCN1CC[C@@H](Oc3ccccc3/C=C/c3n[nH]c4ccc-2cc34)C1=O [Example 70, (10R,16E)-3-methyl-3,5,6,9,10,19-hexahydro-8H-20,22-etheno-7,10-methanodipyrazolo[3,4-i:4,3′-m][1,8,5]benzodioxazacyclooctadecin-25-one]
- IC50 [1]: 0.0271 µM
- IC50 (EGFR WT): 0.0987 µM
- IC50 (EGFR L858R mutant): 0.0701 µM
- IC50 [2]: 0.00368 µM
- IC50 (EGFR (D770_N771insNPG)): 0.0736 µM
- IC50 (EGFR Δ746-750 mutant): 0.0323 µM
- IC50 (EGFR L858R/T790M mutant): 0.00381 µM
